The data set can be described thus: gradient 5% acetonitrile 3 min, to 50% in 2 min, to 85% in 15 min, held 3 min, 100 µL/min. To be noted: column: Zorbax Extend-C18 2.1 x 50 mm; eluents: water / acetonitrile, 0.1% formic acid. The method in brief:
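In both positive and negative ionization mode, a quadrupole time-of-flight mass spectrometer coupled to HPLC analyzed pure standards run in mixtures of ~100 molecules. The Zorbax Extend-C18 column (2.1 × 50 mm, 1.8 μm) was operated at 100 μL/min with water and acetonitrile, each containing 0.1% formic acid. The dead volume was 40 μL and the dwell volume 900 μL. Retention time came from adduct peaks that were computationally picked and individually inspected by hand.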
As to `O=c1n(Cc2ccccc2)nc2c(S(=O)(=O)N3CCCCC3)cccn12`, the RP-LC retention time came out at 647 s.
Then `COc1ccc(Cl)cc1NC(=O)c1c(OC)cc(=O)n2c1CCCC2`, with 801 s.
The same measure for `O=C(Cn1cccc(-c2nc(-c3ccc(F)cc3)no2)c1=O)Nc1ccc(F)cc1F`: 875 s.
The same measure for `COc1ccc(NC(=O)C2CCN(c3cc(N4CCCCC4)ncn3)CC2)cc1OC`: 645 s; for `O=C(Nc1cnc(N2CCCC2)nc1)c1ccccc1Br`: 717 s; for `Cn1nc(CNC(=O)c2n[nH]c(=O)c3ccccc23)c2c1CCN(S(C)(=O)=O)C2`: 609 s.
The compound `CCN1CCN(c2cc(C(=O)O)c3cc(NS(=O)(=O)c4ccc(C)cc4C)ccc3n2)CC1` displayed an RP-LC retention time of 638 s.
Then `CCOC(=O)c1ccc(OC(=O)c2cn(CC)c(=O)c3ccccc23)cc1`, with 1110 s.
In turn, `COc1cccc(-n2c(=O)c(C(=O)Nc3ccccc3Cl)c(O)c3cccnc32)c1` yielded an RP-LC retention time of 1290 s.
The compound `Cc1ccccc1N1CCN(Cc2nc(-c3ccc(N4CCSCC4)nc3)no2)CC1` showed an RP-LC retention time of 801 s.
As to `CNC(=O)NC1CCN(C(=O)c2cccc(F)c2)C1` (stereo not drawn), the RP-LC retention time was 628 s.
Regarding `Cc1nc(-c2ccccc2)sc1C(=O)NCCNC(=O)c1ccc(NC(=O)C2CC2)cc1`, the RP-LC retention time amounted to 705 s.
On to `Cc1ccc(NC(=O)NCC(c2cccnc2)c2c[nH]c3ccccc23)c(C)c1` (stereo not drawn), for which the RP-LC retention time was found to be 683 s.
Then `Cc1ccc(CNC(=O)c2ncn3c2C(=O)N(C2CC2)C(C)(C(=O)NCc2ccc(F)cc2)C3)cc1` (stereo not drawn), with 799 s.
Then `Cc1nnc(-c2ccc(S(=O)(=O)N3CCCCCC3)o2)o1`, with 834 s; and `Clc1ccc(-c2nnc(Cc3nc(-c4cccs4)no3)o2)cc1`, with 1000 s.
Take `COC(=O)c1ccc(C2CC(=O)NC3=C2C(=O)CC(c2ccccc2Cl)C3)cc1` (stereo not drawn): the RP-LC retention time was 881 s.
Then `Cc1ccc(-n2cc3c(N4CCCC(C(=O)NCc5cccc(C(F)(F)F)c5)C4)ncnc3n2)cc1` (stereo not drawn), with 772 s; and `Cc1noc(-c2cccc(OC3CN(C(=O)C4CCOC4)C3)c2)n1` (stereo not drawn), with 694 s.
As to `O=C(NCc1csc(C2CCN(C(=O)c3ccc(F)c(F)c3)CC2)n1)C1CC1`, the RP-LC retention time was found to be 705 s.
Then `CCS(=O)(=O)c1nc2ccc(NS(=O)(=O)c3ccc4c(c3)oc(=O)n4C)cc2s1`, with 805 s.
`COc1ccc(NC(=O)C2CCCN(c3nccnc3Sc3ccccc3)C2)cc1` (stereo not drawn) displayed an RP-LC retention time of 1030 s.
Then `CN(C)c1ccc(CNC(=O)c2nnc(-c3ccc(S(=O)(=O)N(C)C)cc3)o2)cc1`, with 658 s.
Then `Cc1nc(CC(=O)Nc2nc(-c3ccc(F)cc3)c(C)s2)cs1`, with 894 s; and `Cc1ccc(-c2cc(=O)n3c4ccccc4n(CC(=O)NC4CCCC4)c3n2)cc1`, with 942 s.
The same measure for `CN(C)c1cc(C(=O)NC2CC2)c2cccc(Cl)c2n1`: 746 s; for `O=C(NCCc1ccsc1)C(=O)Nc1ccccc1F`: 878 s; for `O=C(NCc1ccccc1F)C1CCCN(c2nnc3c(Cl)cccn23)C1` (stereo not drawn): 710 s.
Compound `O=c1cc[nH]c2c(Cl)cccc12` gave an RP-LC retention time of 676 s.
Consider `COc1cc2c(cc1O)CC1c3c(cc(O)c(OC)c3-2)CCN1C` (stereo not drawn), for which the RP-LC retention time stood at 628 s.
As to `CCn1ccc(C(=O)N2CC(c3nc(C4CC4)nn3C)C2)n1`, the RP-LC retention time is 610 s.
For the compound `Cc1ccn(-c2ccc(N3CCN(C(=O)c4c(F)cccc4Cl)CC3)nn2)n1`, the RP-LC retention time is 752 s.
`O=C(C1=CCN(Cc2cccc(F)c2)CC1)N1CCN(c2ccccc2)CC1` yielded an RP-LC retention time of 642 s.
As to `COc1ccc(-c2nc3ncccn3c2Nc2ccc(C)c(C)c2)cc1`, the RP-LC retention time came out at 784 s.
The same measure for `CC(C)CNC(=O)c1sc2ncccc2c1-n1cccc1`: 971 s; for `CC1(C(=O)NCc2ccc(F)cc2)CCN(S(=O)(=O)c2ccc(Br)s2)CC1`: 1010 s; for `Cc1ccc(C)c(NC(=O)C(C)Oc2cc(C(F)(F)F)c3c(C)nn(C)c3n2)c1` (stereo not drawn): 1040 s.
Then `COc1ccccc1-c1csc(NC(=O)Cc2csc(-c3ccccc3)n2)n1`, with 1150 s; and `COc1ccc(NC(=O)Cn2nc3c4ccccc4ncn3c2=O)cc1Cl`, with 674 s.
As for `Cc1ccc(-c2coc(-c3cccc(NS(=O)(=O)c4cccc5nsnc45)c3)n2)cc1`, the RP-LC retention time is 1180 s.
In turn, `Cn1nccc1-c1cccc(-c2noc(CNS(=O)(=O)c3ccc(F)cc3)n2)c1` came in with an RP-LC retention time of 868 s.
As to `Cc1ccc(N(Cc2nc3nc(C)cc(C)n3n2)C(=O)c2cccs2)cc1`, the RP-LC retention time turned out to be 802 s.
Then `COc1ccc(NC(=O)C2CCN(S(=O)(=O)c3cc(-c4noc(C)n4)cs3)CC2)c(OC)c1`, with 885 s; and `Cc1ccc(NC(=O)Cn2c(=O)n(-c3ccc(F)cc3)c(=O)c3c2cc(C)n3C)c(Cl)c1`, with 946 s.
In turn, `CCN1C(=O)c2cccnc2Sc2cc(NC(=O)C3CC3)ccc21` gave an RP-LC retention time of 685 s.
Then `CSc1ccc(NC(=O)c2c(C)sc3ncnc(N4CCCC(C)C4)c23)cc1` (stereo not drawn), with 1250 s; and `O=S(=O)(c1ccc(-c2ccno2)s1)N1CCN(c2ccccn2)CC1`, with 680 s; and `Cc1ccc(S(=O)(=O)CC(=O)Nc2nc(-c3ccc4c(c3)OCO4)cs2)cc1`, with 924 s.
Then `O=C1NC2(CCN(C(=O)Cc3cccc(F)c3)CC2)Nc2cc(Cl)ccc21`, with 808 s.
The same measure for `CS(=O)(=O)N1CCC(C(=O)Nc2ccc(F)c(Cl)c2)Oc2ccccc21` (stereo not drawn): 986 s.
`Cc1ccc(-c2nc(Nc3ccc(Cl)cc3Cl)sc2CC(=O)O)cc1` gave an RP-LC retention time of 1180 s.
For the compound `Cc1cccc(C)c1-n1ccn(Cc2nc(-c3ccccn3)no2)c(=O)c1=O`, the RP-LC retention time turned out to be 695 s.
Then `C=CCNC(=O)C1CCN(C(=O)Nc2ccc(NC(=O)Nc3ccccc3F)cc2)CC1`, with 710 s.
The same measure for `Cc1nnc(-c2cc(C)n(CC(=O)Nc3cccc(C)c3C)c2C)o1`: 767 s; for `O=C(Nc1ccc(F)c(Cl)c1)c1cccn1Cc1noc(C2CC2)n1`: 998 s.
Then `O=S(=O)(Nc1ccc(F)cc1)c1ccccc1-c1nc(-c2ccccc2)no1`, with 1140 s.
As for `CCn1cc(-c2nc(CC(=O)Nc3cc(C)ccc3F)cs2)c2cccnc21`, the RP-LC retention time was 1040 s.
Then `CCOc1ccc(NC(=O)CSc2nc(N3CCCCC3)nc3ccccc23)cc1`, with 745 s; and `O=C(NCc1ccco1)c1nc2ccccn2c1-c1ccccc1`, with 783 s; and `Cc1cc(S(=O)(=O)[C@H]2CS(=O)(=O)C[C@@H]2N2CCN(c3cccc(Cl)c3)CC2)ccc1F`, with 1090 s.
The same measure for `Cc1nc(-c2ccc3c(c2)n(CC(=O)NC2CCCCC2)c(=O)n3C(C)C)no1`: 857 s; for `CN(C)c1ccc(CNC(=O)c2ccc3c(c2)N(C)C(=O)C2CCCCN32)cc1` (stereo not drawn): 628 s.
Consider `COc1cccc(CNC(=O)Nc2c(-c3ccccc3)nc3ccccn23)c1`, for which the RP-LC retention time worked out at 653 s.
The same measure for `Cc1ccc(NC(=O)N2CCC(n3cnc4ccc(C)cc4c3=O)CC2)cc1`: 801 s.
With `COc1ccc(S(=O)(=O)NCc2cccnc2-c2cccc(C)c2)cc1Cl`, the RP-LC retention time came out at 756 s.
The same measure for `C=CCn1c(-c2ccc([N+](=O)[O-])cc2)nc2nc3ccccc3nc21`: 825 s; for `COc1ccc(-c2[nH]ncc2CN2CC(F)(F)C[C@H]2CN2CCOCC2)cc1OC`: 594 s.
Compound `Cc1nc(-c2noc(-c3ccc(F)cc3)n2)cn1CC(=O)NCc1ccccc1F` yielded an RP-LC retention time of 824 s.
Compound `CCCCN1CCN(C(=O)C2=NN(c3ccc(C)cc3)c3ncccc3S2(=O)=O)CC1` displayed an RP-LC retention time of 685 s.
As for `COC(=O)C1=CN(c2cccc(C#N)c2)c2ccc(F)cc2S1(=O)=O`, the RP-LC retention time was 787 s.
`Cc1ccc(S(=O)(=O)N2CCOCC2)cc1-c1nnc(-c2ccccc2Cl)o1`: the RP-LC retention time worked out at 951 s.
In turn, `O=C(NCCCOc1cccc2cccnc12)c1c(F)cccc1F` registered an RP-LC retention time of 574 s.
`CCCn1cnc2ccc(-c3noc(C4CC(=O)N(c5ccc(C)cc5)C4)n3)cc21` (stereo not drawn): the RP-LC retention time amounted to 735 s.
Turning to `CCc1ccc(CNC(=O)Cn2ccc3c(=O)n(C)c(=O)n(C)c32)cc1`, the RP-LC retention time amounted to 716 s.
With `COc1ccc(Br)c(C(=O)Nc2ccc3c(c2)N(C(=O)C2CCCC2)CC3)c1`, the RP-LC retention time stood at 950 s.
In turn, `CCOc1ccc(N2CCCCn3c2nc2c3c(=O)n(CCOC)c(=O)n2C)cc1` registered an RP-LC retention time of 853 s.
As to `COc1ccc2c(CCNC(=O)CCc3ccccc3)c[nH]c2c1`, the RP-LC retention time was 796 s.
Then `CCOc1cc(=O)n2c(c1C(=O)Nc1ccc(Br)cc1)CCCC2`, with 798 s.
